The test system of one experiment is PDE4H. The note with it: cited from earlier work; for PDE4H/PDE4L ratio: literature values [23-26].
For experiment [1], the target named is T1, high affinity rolipram binding sites (HARBS) of the PDE4 (PDE4H).
T1 construct: other: guinea pig whole brain particulates; 2 nM [3H]-r; guinea pig whole brain particul
Put plainly: Assay II: replacement of [3H]-rolipram bound on particulate HARBS of whole brain. Also on record: species or system guinea pig. The note with it: guinea pig whole brain particulates, 2 nM [3H]-rolipram, mean±S.E.M., read-out: PDE4H (EC50) for replacing high-affinity [3H]-rolipram binding. How it is done: (§1) The binding experiments are carried on basis of the methods of Schneider et al and Zhao et al with a small modification. Under a protocol approved by the Animal Care and Use Committee of Taipei Medical University, five male guinea pigs (Hartley), weighing 500-600 g, are anesthetized. The whole brains taken therefrom are homogenized with in 10 volumes of cold medium (pH 6.5) containing 20 mM Bis-tris, 2 mM benzamidine, 2 mM EDTA, 50 mM sodium chloride, 0.1 mM phenylmethanesulfonyl fluoride (PMSF), and 1 mM dithiothreitol. At 4[…], the homogenate is centrifuged at 170 g for 15 min for removing blood vessels and connective tissues, and the supernatant thereof is then re-centrifuged at 40,000 g for 30 min for separating the particulates from the cytosol of cells.
(§2) The final concentration of [^3H]-rolipram is 2 nM. […] After incubation, the reaction is stopped by transferring the reaction vessel to a bath of crashed ice. Then the reaction mixture is filtered through a punched glass fiber filter (Whatman GF/B) placed in a mini funnel, which is adopted to a 1.5 ml of Eppendorff's tube for collecting the filtrate in the mini centrifuge at 1000 rpm (100 g) for 10 seconds. By the same way (centrifugation), it is further washed with 0.3 ml reaction buffer each for three times. The Whatman GF/B filter is mixed with 2 ml of cocktail and counted by the β-scintillation counter (Backman, Fullerton, Calif., USA) for counting the radioactivity thereof.

The test system of experiment [2] is high affinity rolipram binding sites (HARBS) of the PDE4 (PDE4H). The experiment is described as above. Also on record: species or system guinea pig. Particulars: ratio of HARBS EC50 to PDE4 IC50. How it is done:
as §1, §2

Experiment [3] concerns PDE4. The experiment in a line: Assay I: inhibition of cyclic nucleotide PDE activity (cAMP hydrolysis by PDE4). Particulars: guinea pig PDE4; 1 μM cAMP substrate; mean±S.E.M.; read-out: PDE4L (IC50) on PDE4 activity. It counts as biochemical. How it is done:
Under a protocol approved by the Animal Care and Use Committee of Taipei Medical University, five male guinea pigs (Hartley), weighing 500-600 g, are sacrificed. The lungs (15 g) or hearts (4 g) taken therefrom are chopped into small pieces and homogenized with a glass/teflon homogenizer (Glas-Col, Terre Haute, Ind., USA) in 10 volumes of cold medium (pH 6.5) containing 20 mM Bis-tris, 2 mM benzamidine, 2 mM EDTA, 50 mM sodium chloride, 0.1 mM phenylmethanesulfonyl fluoride (PMSF), and 1 mM dithiothreitol. At 4 , the homogenate is centrifuged at 170 g for 15 min, and the supernatant thereof is then re-centrifuged at 40,000 g for 30 min. […] The column is washed with two bed volumes of homogenate buffer to remove unbound material, where the resin beads therein will bind with proteins, such as PDE proteins. Proteins bound to the Q-Sepharose beads are eluted with various concentrations (0.23, 0.34, 0.44, 0.69, and 1.00 M) of NaCl dissolved in homogenate buffer (for each concentration, 40-50 mL elution buffer are applied) at a flow rate of 30 ml/h. Fractions (3 ml each) are collected, and ethylene glycol (EG) is added thereto until a final concentration of 30% (v/v). And then the samples are frozen at […].
The activities of PDE4 in the homogenate are measured with a two-step procedure according to the method of Thompson and Appleman, using cAMP with [^3H]-cAMP or cGMP with [^3H]-cGMP as substrates. The PDE enzyme prepared (25 μl) with 10 μl inhibitor or the solvents therefor is incubated for 30 min at 37 °C in a total assay buffer, where the final volume of the assay is amounted to 100 μl. In accordance with the features of the PDE isozymes, the assay buffer contains 50 mM Tris/HCl (pH 7.4), 3 mM MgCl2, 1 mM dithiothreitol, and 0.05% BSA, and optionally contains 1 μM cAMP with 0.2 μCi [^3H]-cAMP as a substrate alone or in the presence of 0.1 unit calmodulin with 10 μM CaCl2, or 5 μM cGMP, and 1 μM cGMP with 0.2 μCi [^3,H]-cGMP as another substrate alone or in the presence of 0.1 unit calmodulin with 10 μM CaCl2.
The PDE enzyme and the inhibitors (or their solvent) therefor are mixed and incubated on ice for 30 min previously, and then mixed with the assay buffer. The assay is initiated by transferring the mixture to a water bath at 37 °C. Following the other 30 min incubation, the reaction is stopped by transferring the reaction vessel to a bath of boiling water for 3 min. After cooling on ice, 20 μl of the 1 mg/ml of Crotalus atrox venom is added to the reaction mixture, and the mixture is incubated at 37 °C for 10 min. The uncatalyzed substrates, such as cAMP, [^3H]-cAMP, cGMP, or [^3H]-cGMP are removed by the addition of 500 μl of a 1-in-1 Tris-HCl (40 mM) buffer suspension of Dowex resin (1×8-200) with incubation on ice for 30 min, since the bindings of the cyclic nucleotides and the resin. Each tube is then centrifuged for 2 min at 6000 rpm (3700 g), and 100 μl of the supernatant is removed and counted by a β-counter for calculating the enzyme (PDEs) activity.
The dissociation constant of inhibitor binding (Ki) value is determined from the equation of apparent Km as a function of the inhibitor concentration (insert in A and B, respectively). The slope of the equation is equal to the value of […] (where KM is Michaelis constant). The amounts of the total proteins are calculated based on the analytical method reported by Bradford. In FIGS. 1A to 1D, all enzyme activities are shown as nmole of substrate per mg of proteins per minute (nmole/mg/min) hydrolyzed.

Experiment [4] concerns PDE4. The note with it: cited from earlier work.

Like-named read-outs stand apart in the source and are kept apart here. Some results are limits rather than exact numbers.

Regarding `O=C(Nc1c(Cl)cncc1Cl)C(=O)c1cn(Cc2ccc(F)cc2)c2ccc(O)cc12` [AWD-12-281, N-(3,5-dichloro-pyrid-4-yl)-[1-(4-fluorobenzyl)-5-hydroxy-indole-3-yl]-glyo xylic acid amide], the PDE4H/PDE4L ratio entry in the experiment on PDE4H is “about 11”.
Take `COc1ccc(-c2coc3cc(O)cc(O)c3c2=O)cc1` [Biochanin A]: the EC50 (usually the midpoint of the concentration-response curve) in experiment [1] is above 300 µM. For the same compound, in experiment [2], the “PDE4H/PDE4L ratio (EC50/IC50)” value is above 35. Further, the IC50 – broadly, the midpoint of a concentration-inhibition curve – in the experiment with PDE4 [3] amounted to 8.5 ± 0.1 µM.
`COc1ccc(-c2cc(=O)c3c(O)cc(O)cc3o2)cc1O` [Diosmetin]: the IC50 with PDE4 [3] was found to be 20.2 ± 2.4 µM.
Take `O=c1c(-c2ccc(O)cc2)coc2cc(O)cc(O)c12` [Genistein]: the half-inhibitory concentration (IC50) with PDE4 [4] (reported by Nichols and Morimoto [18], read-out: IC50 for PDE4 inhibition) was 5 µM; with PDE4 [3], 9.5 ± 1.9 µM. The concentration for a half-maximal effect (EC50) in experiment [1] was determined as 47.8 ± 15.9 µM.
As to `COc1ccc(C2CC(=O)c3c(OC(C)=O)cc(OC(C)=O)cc3O2)cc1OC(C)=O` (stereo not drawn) [Hesperetin-5,7,3′-O-triacetate (HTA), Hesperetin-5,7,3′-O-triacetate], the half-maximal effective concentration (EC50) in experiment [1] was above 300 µM. The “PDE4H/PDE4L ratio (EC50/IC50)” value in experiment [2] is reported as above 21. In addition, in the experiment with PDE4 [3], the IC50 amounted to 14.4 ± 1.8 µM.
On to `COc1cc(OC)c2c(c1)OC(c1ccc(OC)c(OC)c1)CC2=O` (stereo not drawn) [Hesperetin-5,7,3′-O-trimethylether], for which, in experiment [1], the EC50 was found to be 171 ± 32.9 µM. For the same compound, the “PDE4H/PDE4L ratio (EC50/IC50)” value in experiment [2] is 18. In the experiment with PDE4 [3], the IC50 came to 9.4 ± 2.9 µM.
In the case of `COc1cc(O)c2c(c1)OC(c1ccc(OC)c(OC)c1)CC2=O` (stereo not drawn) [Hesperetin-7,3′-O-dimethylether (HDME), Hesperetin-7,3′-O-dimethylether], the EC50 in experiment [1] came to 107 ± 39.5 µM. Further, the “PDE4H/PDE4L ratio (EC50/IC50)” value in experiment [2] turned out to be 35.5. Moreover, in the experiment on PDE4 [3], the half-inhibitory concentration (IC50) is 3 ± 0.9 µM.
For `COc1ccc(C2CC(=O)c3c(O)cc(O)cc3O2)cc1O` (stereo not drawn) [Hesperetin], in experiment [1], the EC50 was above 300 µM. In the experiment with PDE4 [3], the IC50 is 28.2 ± 1.1 µM.
With `O=c1cc(-c2ccc(O)c(O)c2)oc2cc(O[C@@H]3O[C@H](CO)[C@@H](O)[C@H](O)[C@H]3O)cc(O)c12` [Luteolin-7-glucoside], in experiment [1], the EC50 was above 300 µM. Besides, the “PDE4H/PDE4L ratio (EC50/IC50)” value in experiment [2] is above 7.
Take `O=c1c(O)c(-c2cc(O)c(O)c(O)c2)oc2cc(O)cc(O)c12` [Myricetin]: the EC50 in experiment [1] was above 300 µM. Besides, the “PDE4H/PDE4L ratio (EC50/IC50)” value in experiment [2] is recorded as above 7.5. For the same compound, the IC50 with PDE4 [3] worked out at 39.8 ± 2.1 µM.
In the same order, the values of `COc1cc(O)c2c(=O)c(-c3ccc(O)cc3)coc2c1` [Prunetin] are above 300 µM, above 4.8 and 61.9 ± 17.3 µM.
With `COc1c(-c2ccc(O)c(O)c2)oc2cc(O)cc(O)c2c1=O` [Qercetin-3-O-methylether (3-MQ), Qercetin-3-O-methylether], the EC50 in experiment [1] came to 17.4 ± 4 µM. Further, in experiment [2], the “PDE4H/PDE4L ratio (EC50/IC50)” value stood at 0.61. The IC50 with PDE4 [3] came out at 28.5 ± 5.8 µM.
Regarding `CC(=O)Oc1cc(OC(C)=O)c2c(=O)c(OC(C)=O)c(-c3ccc(OC(C)=O)c(OC(C)=O)c3)oc2c1` [Quercetin-3,5,7,3′,4′-O-pentaacetate], the EC50 in experiment [1] stood at 82.8 ± 22.3 µM. For the same compound, the “PDE4H/PDE4L ratio (EC50/IC50)” value in experiment [2] is 4.48. In addition, the IC50 in the experiment with PDE4 [3] was 18.5 ± 4.6 µM.
The corresponding values for `COc1cc(OC)c2c(=O)c(OC)c(-c3ccc(OC)c(OC)c3)oc2c1` [Quercetin-3,5,7,3′,4′-O-petamethylether] are 56 ± 22.7 µM, 11 and 5.1 ± 1.4 µM.
`COc1cc(O)c2c(=O)c(OC)c(-c3ccc(OC)c(OC)c3)oc2c1` [Quercetin-3,7,3′,4′-O-tetramethylether]: the EC50 in experiment [1] is above 300 µM. Besides, the IC50 in the experiment on PDE4 [3] was above 100 µM.
Regarding `COc1cc(O)c2c(=O)c(OC)c(-c3ccc(OC)c(O)c3)oc2c1` [Quercetin-3,7,4′-O-trimethylether], the EC50 in experiment [1] is above 300 µM. The “PDE4H/PDE4L ratio (EC50/IC50)” value in experiment [2] was above 19. For the same compound, the IC50 in the experiment with PDE4 [3] amounted to 15.8 ± 4.4 µM.
Take `COc1c(-c2ccc(OC(C)=O)c(OC(C)=O)c2)oc2cc(OC(C)=O)cc(OC(C)=O)c2c1=O` [Quercetin-3-O-methyl-5,7,3′,4′-O-tetraacetate]: the EC50 in experiment [1] was 3.9 ± 1.4 µM. The “PDE4H/PDE4L ratio (EC50/IC50)” value in experiment [2] was 1. The IC50 in the experiment on PDE4 [3] amounted to 3.9 ± 0.6 µM.
Turning to `O=c1c(O)c(-c2ccc(O)c(O)c2)oc2cc(O)cc(O)c12` [Quercetin], the EC50 in experiment [1] was above 300 µM. Further, the “PDE4H/PDE4L ratio (EC50/IC50)” value in experiment [2] was above 30. Moreover, in the experiment with PDE4 [3], the IC50 is 9.9 ± 2.5 µM.
On to `CCCCOc1cc(CC2CNC(=O)N2)ccc1OC` (stereo not drawn) [Ro 20-1724, reference compound], for which the EC50 in experiment [1] (reference drugs) is 0.087 ± 0.029 µM. In addition, the IC50 in the experiment on PDE4 [3] was determined as 8.7 ± 1.9 µM.
In the case of `COc1ccc(C2CNC(=O)C2)cc1OC1CCCC1` (stereo not drawn) [Rolipram, reference compound], the IC50 was […] in the experiment with PDE4 [4] (literature [23], read-out: IC50 for binding PDE4L) and […] in the experiment on PDE4 [3]. The EC50 in experiment [1] (reference drugs) was 0.0052 ± 0.0019 µM; in the experiment with PDE4H (literature [23], read-out: EC50 for binding PDE4H), […]. Moreover, in experiment [2], the “PDE4H/PDE4L ratio (EC50/IC50)” value is […]. Also, the PDE4H/PDE4L ratio in the experiment with PDE4H is […].
For `COc1ccc([C@]2(C#N)CC[C@@H](C(=O)O)CC2)cc1OC1CCCC1` [cilomilast], the PDE4H/PDE4L ratio result in the experiment with PDE4H is “about 1”.
Consider `O=C(Nc1c(Cl)cncc1Cl)c1ccc(OC(F)F)c(OCC2CC2)c1` [roflumilast], for which the PDE4H/PDE4L ratio with PDE4H was 3.

The values above are taken from patent US20090036518A1, “PHARMACEUTICAL COMPOSITION CONTAINING FLAVONOIDS” (TAIPEI MEDICAL UNIVERSITY, priority 2005, published 2009).
